Experimental data taken from patent US20030050242A1, “Protein polymerization inhibitors and methods of use” (priority 1999, published 2003).
Read-outs that look alike come from different tables or passages of the source. Marks after values point to notes of the source that are not given here. Ends that are not written are not given here. Peptide text beside a SMILES is read from it.

What was measured:
[1] = system: SIV; assay: viral infection assay in H9 cells, reverse transcriptase (RT) activity in supernatant; type: cell-based; settings: for effect on SIV infection, in words: summary of the experiments in H9 cells; for Day 7 RT SIV / Day 10 RT SIV: H9 cells, 100 μM
Procedure: (§1) Next, the ability of peptide agents to inhibit viral infection was evaluated. Accordingly, the peptide agents listed in Table 1 were used in several viral (e.g., HIV-1, HIV-2, and SIV) infection assays. […] Once inhibitory tripeptides were identified, more specific assays were conducted to determine the effect of varying concentrations of the selected tripeptides and combination treatments (e.g., the use of more than one modified tripeptide in combination).
(§2) To monitor the replication of virus, reverse transcriptase (RT) activity in the supernatants was assayed using a commercially available Lenti-RT activity kit. (Cavidi Tech, Uppsala, Sweden). The amount of RT was determined with the aid of a regression line of standards. […] Syncytium formation was also monitored by microscopic examination.
(§3) (Cavidi Tech). The amount of RT was determined with the aid of a regression line of standards.

[2] = system: HIV-2; assay: as above; type: cell-based; settings: for effect on HIV-2 infection, in words: summary of the experiments in H9 cells; for Day 7 RT HIV-2 / Day 10 RT HIV-2: H9 cells, 100 μM
Procedure: as §1, §2, §3

[3] = system: HIV-1; settings: summary of Experiments 1-6
Procedure: as §1

[4] = target: viral capsid protein (p24) of SIV (SIV)
[5] = target: viral capsid protein (p24) of HIV-2 (HIV-2)
[6] = system: HIV-1; settings: H9 cells, 100 μM
Procedure: Next, the ability of peptide agents to inhibit viral infection was evaluated. Accordingly, the peptide agents listed in Table 1 were used in several viral (e.g., HIV-1, HIV-2, and SIV) infection assays. The efficiency of HIV-1, HIV-2, and SIV infection was monitored by reverse transcriptase activity, the concentration of p24 protein in the cell supernatent, and by microscopic evaluation of HIV-1 syncytia formation. In initial experiments, several modified tripeptides were screened for the ability to inhibit HIV-1, HIV-2, and SIV infection in H9 cells.
In Experiments 1 and 2, approximately 200,000H9 cells were infected with HIV-1, HIV-2 or SIV at 25 TCID50 to test the inhibitory effect of the following synthesized tripeptides LKA-NH2, ILK-NH2, GPQ-NH2, GHK-NH2, GKG-NH2, ACQ-NH2, CQG-NH2, ARV-NH2, KAR-NH2, HKA-NH2, GAT-NH2, KAL-NH2, and GPG-NH2. Accordingly, the H9 cells were resuspended with or without the different peptides (approximately 100 μM) in 1 ml of RPMI 1640 medium supplemented with 10% (v/v) heat-inactivated fetal bovine serum (FBS), penicillin (100 u/ml), and streptomycin (100 u/ml), all available through GIBCO, and Polybrene (2 μg/ml), available through Sigma. Thereafter, viruses were added at 25 TCID50 in a volume of 20-30%1. Cells were incubated with virus at 37° C. for 1 hr then pelleted at 170× g for 7 minutes. The cells were then washed three times in RPMI medium without peptides at room temperature and pelleted at 170× g for 7 minutes, as above. After the final wash, the cells were resuspended in RPMI culture medium in a 24-well plate (Costar corporation) and kept at 37° C. in 5% CO2 with humidity.
Culture supernatants were collected and analyzed when the medium was changed at 4, 7, 10, and 14 days post infection. To monitor the replication of virus, reverse transcriptase (RT) activity in the supernatants was assayed using a commercially available Lenti-RT activity kit. […] The amount of RT was determined with the aid of a regression line of standards. The results are presented as absorbance values (OD) and higher absorbance indicates a higher protein concentration and greater viral infection. Syncytium formation was also monitored by microscopic examination.
In Experiment 3, (Table 5), approximately 200,000H9 cells were infected with HIV-1, HIV-2 or SIV at 25 TCID50 to test the inhibitory effect of different concentrations of peptides GPG-NH2, GKG-NH2 and CQG-NH2 and combinations of these peptides (the indicated concentration corresponds to the concentration of each tripeptide). As above, H9 cells were resuspended with or without the different peptides at varying concentrations in 1 ml of RPMI 1640 medium supplemented with 10% (v/v) heat-inactivated fetal bovine serum (FBS), penicillin (100 u/ml), and streptomycin (lOOu/ml), and Polybrene (2 μg/ml). Thereafter, viruses were added at 25 TCID50 in a volume of 20-30 μ. Cells were incubated with the indicated virus at 37° C. for 1 hr then pelleted at 170× g for 7 minutes. The cells were then washed three times in RPMI medium without peptides at room temperature and pelleted at 170× g for 7 minutes, as above. After the final wash, the cells were resuspended in RPMI culture medium in a 24-well plate (Costar corporation) and kept at 37° C. in 5% CO2 with humidity.
Culture supernatants were collected when the medium was changed at 4, 7, and 11 days post infection. As above, the replication of each virus was monitored by detecting reverse transcriptase (RT) activity in the supernatants using the Lenti-RT activity kit.

[7] = system: HIV-1; settings: H9 cells, 100 μM, pos/neg
Procedure: as §1, §2

[8] = Experiment 1, higher OD = greater infection

Compound | effect on SIV infection, in words [1] | effect on HIV-2 infection, in words [2] | effect on HIV-1 infection, in words [3] | reverse transcriptase (RT) activity in the supernatants, Day 10 RT (OD) [4] | reverse transcriptase (RT) activity in the supernatants, Day 10 RT (OD) [5] | Day 10 RT HIV-1 ([6]; Experiment 1) | Day 7 RT HIV-1 [6, 8] | Day 7 RT HIV-1 ([6]; Experiment 2) | Day 10 RT HIV-1 ([6]; Experiment 2) | HIV-1 Syncytia ([7]; Experiment 1) | HIV-1 Syncytia ([7]; Experiment 2) | Day 7 RT SIV ([1]; Experiment 1) | Day 10 RT SIV ([1]; Experiment 1) | Day 7 RT SIV ([1]; Experiment 2) | Day 10 RT SIV ([1]; Experiment 2) | Day 7 RT HIV-2 ([2]; Experiment 1) | Day 10 RT HIV-2 ([2]; Experiment 1) | Day 7 RT HIV-2 ([2]; Experiment 2) | Day 10 RT HIV-2 ([2]; Experiment 2)
NCCCC[C@H](NC(=O)CN)C(=O)NCC(N)=O [GKG-NH2, glycyl-lysyl-glycine amide] (H-Gly-Lys-Gly-NH2) | inhibit or prevent HIV-2 and SIV infection | inhibit or prevent HIV-2 and SIV infection | inhibited and/or prevented HIV-1 infection |  |  |  |  |  |  |  |  |  |  |  |  |  |  |  | 
ACQ-NH2 (peptide) |  |  |  | 2.75 OD | 2.75 OD |  |  |  |  |  |  |  |  |  |  |  |  |  | 
ARV-NH2 (peptide) |  |  |  | 1.17 OD | 3 OD |  |  |  |  |  |  |  |  |  |  |  |  |  | 
Ala-Arg-Val (Ala-Arg-Val-NH2) [ARV-NH2] |  |  | failed to prevent infection |  |  | 1.528 OD | 0.156 OD | 0.618 OD | 2.829 OD | pos | pos | 0.210 OD | 1.172 OD | 0.212 OD | 3.004 OD | 3.380 OD | 3.003 OD | 2.237 OD | 2.628 OD
Ala-Cys-Gln (Ala-Cys-Gln-NH2) [ACQ-NH2] |  |  | did not prevent HIV infection |  |  | 0.904 OD | 0.117 OD | 0.606 OD | 2.831 OD | pos | pos | 1.241 OD | 2.746 OD | 0.612 OD | 2.606 OD | 3.418 OD | 2.753 OD | 1.661 OD | 2.505 OD
Cys-Gln-Gly-NH2 (peptide) |  |  |  | 0.11 OD | 0.296 OD |  |  |  |  |  |  |  |  |  |  |  |  |  | 
Gly-Ala-Thr (Gly-Ala-Thr-NH2) [GAT-NH2] |  |  | failed to prevent infection and syncytia formation |  |  | 1.565 OD | 0.116 OD | 0.776 OD | 2.800 OD | pos | pos | 0.892 OD | 2.343 OD | 0.572 OD | 2.776 OD | 3.461 OD | 2.835 OD | 1.707 OD | 2.565 OD
Gly-His-Lys (Gly-His-Lys-NH2) [GHK-NH2] |  |  | failed to prevent infection and syncytia formation |  |  | 2.151 OD | 0.289 OD | 0.829 OD | 3.013 OD | pos | pos | 0.097 OD | 2.384 OD | 0.396 OD | 2.394 OD | 3.522 OD | 2.931 OD | 1.936 OD | 2.418 OD
Gly-Pro-Gln (Gly-Pro-Gln-NH2) [GPQ-NH2] |  |  | did not prevent HIV infection |  |  | 1.965 OD | 0.204 OD | 0.884 OD | 2.848 OD | pos | pos | 1.542 OD | 2.176 OD | 0.574 OD | 2.319 OD | 3.692 OD | 2.734 OD | 1.511 OD | 2.382 OD
His-Lys-Ala (His-Lys-Ala-NH2) [HKA-NH2] |  |  | did not prevent HIV infection |  |  | 2.546 OD | 0.312 OD | 1.081 OD | 2.794 OD | pos | pos | 0.416 OD | 2.520 OD | 0.455 OD | 2.623 OD | 3.408 OD | 2.669 OD | 1.678 OD | 2.560 OD
Iso-Leu-Lys (Ile-Leu-Lys-NH2) [ILK-NH2] |  |  |  |  |  | 2.033 OD | 0.365 OD | 0.581 OD | 2.950 OD | pos | pos | 3.180 OD | 2.255 OD | 0.515 OD | 2.632 OD | 3.467 OD | 2.791 OD | 1.692 OD | 2.557 OD
Leu-Lys-Ala (Leu-Lys-Ala-NH2) [LKA-NH2] |  |  | did not prevent HIV infection |  |  | 2.429 OD | 0.568* OD | 0.894* OD | 2.989 OD | pos | pos | 3.577 OD | 2.452 OD | 0.724 OD | 2.797 OD | 3.649 OD | 2.769 OD | 1.689 OD | 2.637 OD
Lys-Ala-Arg (Lys-Ala-Arg-NH2) [KAR-NH2] |  |  |  |  |  | 2.779 OD | 0.380 OD | 0.753 OD | 2.928 OD | pos | pos | 0.266 OD | 1.722 OD | 1.034 OD | 2.672 OD | 3.419 OD | 2.640 OD | 1.904 OD | 2.742 OD
Lys-Ala-Leu (Lys-Ala-Leu-NH2) [KAL-NH2] |  |  | failed to prevent infection |  |  | 1.995 OD | 0.246 OD | 0.999 OD | 2.791 OD | pos | pos | 1.091 OD | 2.524 OD | 0.511 OD | 2.663 OD | 3.372 OD | 2.749 OD | 1.757 OD | 2.383 OD
cystyl-glutaminyl-glycine amide [CQG-NH2] | inhibit or prevent HIV-2 and SIV infection | inhibit or prevent HIV-2 and SIV infection | inhibited and/or prevented HIV-1 infection |  |  |  |  |  |  |  |  |  |  |  |  |  |  |  | 
